Experimental data: patent publication US20030039980A1, “Assays for determination of functional binding of compounds to receptors” (priority 2000, published 2003)

Legend:
[1] = biological target: T1, human PPARα ligand binding domain (GST-PPARα-LBD) (Homo sapiens, UniProt Q07869); assay: in vitro PPARα/SRC-1 binding assay (GST-PPARα-LBD / SRC-Luc complex captured on glutathione-sepharose beads, luciferase readout)
T1 construct: made in house; host or cells: E. coli BL21(DE3)pLysS
T1 sequence (Q07869 164-468): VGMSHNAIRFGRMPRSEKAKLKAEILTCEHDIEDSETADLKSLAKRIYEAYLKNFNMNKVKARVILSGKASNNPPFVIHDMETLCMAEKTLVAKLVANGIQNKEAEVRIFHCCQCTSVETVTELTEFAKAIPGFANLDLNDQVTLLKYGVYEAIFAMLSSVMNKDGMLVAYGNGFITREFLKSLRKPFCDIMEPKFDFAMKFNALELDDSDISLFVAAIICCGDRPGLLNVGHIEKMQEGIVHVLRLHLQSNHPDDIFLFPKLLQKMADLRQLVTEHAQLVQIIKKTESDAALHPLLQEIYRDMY
T1 sequence (Q15788 631-763 partner limits assumed): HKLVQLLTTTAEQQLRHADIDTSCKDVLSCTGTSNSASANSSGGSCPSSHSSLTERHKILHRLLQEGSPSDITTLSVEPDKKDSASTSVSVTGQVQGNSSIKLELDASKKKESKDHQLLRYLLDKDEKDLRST
Description: For this example, the peroxisome proliferator-activated receptor-α (PPARα) nuclear receptor was chosen. The PPAR LBD was expressed in bacteria as a GST fusion protein (GST-PPARα-LBD) for use in the assay (FIG. 1). Also chosen was a known PPARα coactivator, SRC-1 (Takeshita Endocrinology 137:3594-3597 (1996)). SRC-1 was expressed as a GST fusion protein also containing a firefly luciferase moiety (GST-SRC-Luc). The GST moiety was subsequently cleaved away from purified GST-SRC-1-Luc protein to yield a purified SRC-Luc protein (FIG. 1). A known PPARα ligand, GW2331, was also chosen for establishing the assay.
The GST-PPARα-LBD expression plasmid was prepared as follows: the human PPARα ligand binding domain including the hinge region (amino acids 164-468, accession #S74349) was PCR amplified from HepG2 first-strand cDNA using synthetic primers (SEQ ID:1 and SEQ ID:2) and native Taq polymerase. The primers were tagged with BamHI (5′) and NotI (3′) restriction sites to facilitate cloning. PCR fragments were cloned directly into pGEM®-T (Promega Corp), screened by diagnostic restriction digests, and confirmed by DNA sequence analysis. A combination of clones was used to generate a complete, error-free clone. The PPARα hinge/ligand binding domain clone was then transferred into pGEX-4T-3 (Amersham Pharmacia Biotech) as a BamH I/Not I fragment to create an in-frame fusion with GST. […]

[2] = biological target: T2, human PPARβ ligand binding domain (GST-PPARβ-LBD) (Homo sapiens, UniProt Q03181); assay: in vitro PPARβ/SRC-1 binding assay (GST-PPARβ-LBD / SRC-Luc complex captured on glutathione-sepharose beads, luciferase readout); conditions: each ligand at final 5 μM; FIG. 3
T2 construct: made in house
T2 sequence (Q03181 136-441): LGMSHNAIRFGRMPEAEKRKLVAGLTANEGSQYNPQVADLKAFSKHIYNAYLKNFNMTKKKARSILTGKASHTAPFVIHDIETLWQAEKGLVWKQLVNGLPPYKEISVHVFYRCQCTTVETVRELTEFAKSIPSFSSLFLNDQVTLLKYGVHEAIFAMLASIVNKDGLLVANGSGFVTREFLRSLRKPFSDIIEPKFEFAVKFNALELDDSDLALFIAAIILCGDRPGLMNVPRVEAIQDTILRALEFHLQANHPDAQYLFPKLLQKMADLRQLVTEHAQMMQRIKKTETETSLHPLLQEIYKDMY
T2 sequence (Q15788 631-763 partner limits assumed): T1 sequence (Q15788 631-763 partner limits assumed)

CCCCCCCN(CCc1ccc(OC(C)(CC)C(=O)O)cc1)C(=O)Nc1ccc(F)cc1F (stereo not drawn) [GW2331, spec/2-(4-[2-(3[2,4-Difluorophenyl]-1-heptylureido)ethyl]phenoxy)-2-methylbutyric acid] was tested, and the “binding of ligand by GST-PPARα-LBD (luciferase activity of the isolated complex with SRC-Luc)” value ([1]; each ligand at final 5 μM, FIG. 3) was “efficiently”, the “amount of GST-PPARα-LBD/GW2331 ligand/SRC-Luc complex (luciferase activity, light units) as the ligand concentration was increased” value ([1]; ligand at 0.001, 0.01, 0.1, 1.0, 10.0 and 100.0 μM, 2 h at 4° C., FIG. 2) was “also increased” and the “binding of ligand by GST-PPARβ-LBD (luciferase activity of the isolated complex with SRC-Luc)” value [2] was “roughly equal efficiency”.
